# Biological target: T1, MYLK (MLCK) (Homo sapiens, UniProt Q15746)
# T1 construct: purchased Thermo Fisher Scientific (Life Technologies) SelectScreen
# Assay: SelectScreen LanthaScreen
# Format: binding
# Conditions: read-out: % displacement
# Summary of the method: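 SelectScreen broad panel; activity (Z'LYTE, Adapta) plus binding formats. ATP: Km app for CSF1R Z'LYTE; 10 for CAMK1 Adapta. Readout = % per kinase.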
# T1 sequence (Q15746 whole entry): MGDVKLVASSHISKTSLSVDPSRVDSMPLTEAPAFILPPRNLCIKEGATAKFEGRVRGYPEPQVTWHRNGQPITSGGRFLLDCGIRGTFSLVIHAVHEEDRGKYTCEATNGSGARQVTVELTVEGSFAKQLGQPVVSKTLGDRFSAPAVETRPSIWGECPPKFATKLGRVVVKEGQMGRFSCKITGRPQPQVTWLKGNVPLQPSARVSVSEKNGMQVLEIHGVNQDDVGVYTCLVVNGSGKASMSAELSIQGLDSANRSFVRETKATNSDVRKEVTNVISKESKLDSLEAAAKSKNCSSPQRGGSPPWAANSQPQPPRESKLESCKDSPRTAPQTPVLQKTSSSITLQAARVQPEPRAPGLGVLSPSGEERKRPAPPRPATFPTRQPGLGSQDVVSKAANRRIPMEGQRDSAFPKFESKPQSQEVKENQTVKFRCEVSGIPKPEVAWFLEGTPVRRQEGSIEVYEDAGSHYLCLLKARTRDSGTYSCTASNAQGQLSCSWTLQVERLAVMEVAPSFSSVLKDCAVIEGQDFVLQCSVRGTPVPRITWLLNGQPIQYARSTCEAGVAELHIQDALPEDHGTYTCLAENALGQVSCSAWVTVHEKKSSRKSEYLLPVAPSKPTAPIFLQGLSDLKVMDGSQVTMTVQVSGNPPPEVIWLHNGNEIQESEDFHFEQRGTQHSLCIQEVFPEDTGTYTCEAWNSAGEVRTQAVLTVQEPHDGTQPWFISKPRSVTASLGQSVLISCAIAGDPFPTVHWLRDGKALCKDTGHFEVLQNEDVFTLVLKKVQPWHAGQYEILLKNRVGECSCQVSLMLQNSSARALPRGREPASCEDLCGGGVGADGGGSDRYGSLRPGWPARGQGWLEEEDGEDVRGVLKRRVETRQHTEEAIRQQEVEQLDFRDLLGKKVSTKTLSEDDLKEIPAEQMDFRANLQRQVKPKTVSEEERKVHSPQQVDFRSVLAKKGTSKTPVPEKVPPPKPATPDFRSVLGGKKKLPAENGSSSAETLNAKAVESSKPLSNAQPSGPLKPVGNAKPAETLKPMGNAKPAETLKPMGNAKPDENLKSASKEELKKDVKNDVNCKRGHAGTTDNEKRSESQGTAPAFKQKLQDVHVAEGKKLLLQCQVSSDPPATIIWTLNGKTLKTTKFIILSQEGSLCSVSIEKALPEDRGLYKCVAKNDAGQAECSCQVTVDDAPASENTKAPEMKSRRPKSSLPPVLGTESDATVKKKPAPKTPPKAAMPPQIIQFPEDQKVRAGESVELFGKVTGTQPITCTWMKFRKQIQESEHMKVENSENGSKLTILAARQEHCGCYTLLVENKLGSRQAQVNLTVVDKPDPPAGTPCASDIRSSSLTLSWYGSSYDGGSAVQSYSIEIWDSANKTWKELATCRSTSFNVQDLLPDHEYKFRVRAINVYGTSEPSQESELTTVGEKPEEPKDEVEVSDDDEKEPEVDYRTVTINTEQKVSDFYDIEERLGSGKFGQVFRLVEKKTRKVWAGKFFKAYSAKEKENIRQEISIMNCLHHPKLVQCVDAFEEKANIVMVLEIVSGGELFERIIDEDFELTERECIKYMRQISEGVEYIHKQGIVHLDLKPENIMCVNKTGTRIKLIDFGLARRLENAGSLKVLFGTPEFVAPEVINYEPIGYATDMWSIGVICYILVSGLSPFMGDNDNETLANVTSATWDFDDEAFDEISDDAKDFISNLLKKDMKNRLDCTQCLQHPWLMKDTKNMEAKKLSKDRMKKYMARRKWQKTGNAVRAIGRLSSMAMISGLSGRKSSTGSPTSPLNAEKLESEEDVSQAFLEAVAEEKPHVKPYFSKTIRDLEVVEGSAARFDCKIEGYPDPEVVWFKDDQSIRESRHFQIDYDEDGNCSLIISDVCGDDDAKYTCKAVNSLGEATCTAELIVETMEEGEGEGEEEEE
structure (smiles),measurement,value
CN(C(=O)CN1CCOCC1)c1ccc2sc3c(-c4cccc5c(=O)cc(N6CC7CCC(C6)O7)oc45)cccc3c2c1 [NU5455],inhibition at 1 µM,0.2%

# Source: paper PMC6934184, “Selective DNA-PKcs inhibition extends the therapeutic index of localized radiotherapy and chemotherapy” (The Journal of Clinical Investigation, 2019)
